Data as given in patent US8535740B2, “Compositions from Nigella sativa” (priority 2002, dated 2013).
Values after ≈ are worked out from the molar mass of the structure shown. Marks after values point to notes of the source that are not given here.

How the values were obtained:
[1] = DPPH free radical scavenging (antioxidant) activity; assay type: biochemical; conditions: computed on basis of TQ content
Description: Methodology—Antioxidant activity was determined utilizing 2,2-diphenyl-1-picrylhydrazyl (DPPH), which is a stable radical. […] The color turns from purple to yellow as the molar absorption of the DPPH radical at 550 nm is reduced when the odd electron of DPPH radical becomes paired with hydrogen from a free radical scavenging antioxidant to form the reduced DPPH-H. The test samples were dissolved in methanol containing 1% dimethyl sulfoxide and added to microtiter wells in 100 μL aliquots to 100 μL of a 100 μM DPPH solution in methanol. Readings were taken at 10, 30 and 60 minutes following the addition of the test material. Percent inhibition of the DPPH radical by the test material was computed relative to the inhibition of the DPPH radical by the vitamin E analog trolox and tabulated as μmol trolox/g test material.

[2] = test system: adiponectin secretion in 3T3-L1 adipocytes; test: Adiponectin secretion in t10-CLA-stimulated 3T3-L1 adipocytes; assay type: cell-based, murine
Description: Treatment—Test materials were added four hours prior to the addition of t10-CLA at a concentration of 50 μM. Following overnight incubation, the supernatant media were sampled for determination of IL-6 and adiponectin. Adiponectin assay—The adiponectin secreted into the medium was quantified using the Mouse Adiponectin Quantikine® Immunoassay kit with no modifications (R&D Systems, Minneapolis, Minn.). […] Statistical Calculations and Interpretation—Test materials and were assayed in duplicate, while solvent controls were replicated eight times. IL-6 and adiponectin secretion were represented relative to the IL-6 and adiponectin secretion of the t10-CLA only controls as the IL-6 and adiponectin index and differences among the means were analyzed by the student's t-test assuming a five percent probability of a type I error (Excel; Microsoft, Redmond, Wash.).

[3] = test system: prostate specific antigen (PSA) secretion from LNCaP prostate cells; test: Prostate specific antigen secretion from LNCaP prostate cells; assay type: cell-based, human; conditions: for Effect on PSA Secretion over 24 Hours: LNCaP cells; for PSA secretion: 24 hours
Excerpt: Chemicals—PSA was quantified from the cell culture supernatant fluid using the Quantikine Human KLK3/PSA Immunoassay kit (R&D Systems, Inc., Minnaepolis, Minn.). All other materials used in this example were purchased from Sigma (St. Louis, Mo.) or otherwise noted and were of the highest purity commercially available. The N. sativa samples used in this study were those commercial-scale extracts described in Example 1. Cell culture and treatment—The LNCaP prostate cell line, which produces PSA, was used to study the effects of commercial-scale N. sativa scale extracts of Example 1 and pure TQ on the secretion of PSA. LNCaP cells were purchased from the American Type Culture Collection (ATCC, Manassas, Va.) and sub-cultured according to instructions supplied by ATCC. Prior to experiments, cells were cultured in DMEM containing 10% FBS-HI added 50 units penicillin/ml and 50 μg streptomycin/ml, and maintained in log phase prior to experimental setup. Cells were grown in a 5% CO2 humidified incubator at 37° C. Components of medium included: (1) 10% FBS/DMEM (Fetal Bovine Serum/Dulbecco's Modified Eagle's Medium) containing 4.5 g glucose/L; (2) 50 U/ml penicillin; and (3) 50 μg/ml streptomycin. Growth medium was made by adding 50 ml of heat inactivated FBS and 5 ml of penicillin/streptomycin to 500 ml DMEM. This medium was stored at 4° C. Before use, the medium was warmed to 37° C. in a water bath. LNCaP cells were seeded at an initial density of 6×10^4 cells/cm^2 in 96-well plates. For two days, the cells were allowed grow to reach confluence. On day three post seeding, cells were treated with TQ, NS8, NS9, NS10, Spent#1, and NSSpent#2 at the concentrations listed in FIGS. 5, 6 and 7. Twenty-four hours later, the supernatant media were sampled and assayed for PSA.

3T3-L1 adipocytes = test: Lipolysis (glycerol / free fatty acid release) in 3T3-L1 adipocytes; assay type: cell-based, murine; conditions: forskolin 82 μg/mL, test materials 5 μg/mL (FIG. 9)
Description: (§1) Cell culture and treatment-Culture and treatment of 3T3-L1 adipocytes and C2C12 myocytes was as described in Example 5. Concentrations of the forskolin positive control and test materials are listed in FIG. 9 for adipocytes and FIG. 10 for myocytes. Glycerol assay-Free fatty acid release from 3T3-L1 adipocytes or C2C12 myocytes was quantified by measuring glycerol secretion into the medium. Glycerol was measured spectrophotometrically using the Free Glycerol Determination Kit ([…], Sigma) and an EL 312e Microplate BIO-KINETICS spectrophotometer (BioTek, Winooski, Vt.). Data analysis-Glycerol release from adipocytes and myocytes was expressed, respectively, as the percent increase in free fatty acid secretion (FIG. 9) and relative glycerol content (glycerol index FIG. 10) ±95% confidence intervals of eight observations for one of three representative experiments.

C2C12 myocytes = test: Lipolysis (glycerol / free fatty acid release) in C2C12 myocytes; assay type: cell-based, murine; conditions: test materials 5 or 2.5 μg/mL (FIG. 10)
Description: as §1

[4] = test system: iNOS-mediated NO biosynthesis in C2C12 myocytes; test: LTI cytokine-stimulated NO biosynthesis in C2C12 myocytes; assay type: cell-based, murine; conditions: Mus musculus, value computed on the basis of TQ content, LPS/TNFα/IFγ stimulation 20 hours, (95% confidence interval), read-out: Median Inhibitory Concentration for iNOS-mediated NO biosynthesis, C2C12 Myocytes
Description: Mouse C2C12 myoblasts (American Type Culture Collection, Manassas, Va.) were maintained in Dulbecco's modified Eagle's medium (DMEM) supplemented with 10% fetal calf serum (FCS), 50 units/ml penicillin and 50 μg/ml streptomycin. As cells reached confluence, the medium was switched to the differentiation medium containing DMEM and 2% horse serum. Medium was changed every other day. […] At the end of the treatment period, media were sampled for determination of NO. […] Determination of nitrite in waters by microplate fluorescence spectroscopy and HPLC with fluorescence detection. Anal Chem. Aug. 1 1999; 71(15):3003-3007). In a separate, black-walled, 96-well, microtiter plate, a 7 μL aliquot of a 4.8×10^-4 mol NBDM/L solution was added to 200 μL of the supernatant media followed by the addition of 15 μL of concentrated phosphoric acid. After a reaction time of 30 minutes at ambient temperature, the fluorescence was read with 485 nm excitation filter and a 530 nm emission filter in a Packard Fluorocount spectrofluorometer (Model #BF10000, Meridan, Conn.). […] Quantitative analysis of dose-effect relationships: the combined effects of multiple drugs or enzyme inhibitors.

CC1=CC(=O)C(C(C)C)=CC1=O [Thymoquinone (Sigma), thymoquinone]
DPPH Reducing Activity [1]: 45.2 μmol Trolox/g TQ | effect on t10-CLA-stimulated decrease of adiponectin secretion ([2]; concentrations of Table 8): attenuated t10-CLA-stimulated decrease of adiponectin secretion | Adiponectin Index ([2]; relative to t10-CLA only control (100), 50 μM t10-CLA, overnight, each material at its tabulated concentration): 128* | Effect on PSA Secretion over 24 Hours [3]: Decreased PSA at 5 and 10 μg/mL, dramatic increase | Effect on PSA Secretion over 24 Hours ([3]; listed as TQ): decreased PSA only at the two lowest doses tested | PSA secretion ([3]; highest dose (100 μg/mL per Table 4)): 207% | PSA secretion ([3]; second highest dose (50 μg/mL per Table 4)): 166% | free fatty acid release in adipocytes (3T3-L1 adipocytes): induced free fatty acid release | free fatty acid release in myocytes (C2C12 myocytes): induced free fatty acid release | IC50 [4]: 1.9 µg/mL (≈ 11.6 µM)
